Measurements as given in patent US20170166598A1, “HETEROARYL COMPOUNDS FOR KINASE INHIBITION” (ARIAD PHARMACEUTICALS, INC., priority 2014, published 2017).

Legend:
Format in all cases: cell-based
[1] = target: T1, human EGFR exon 20 insertion ASV (V769_D770insASV) (Homo sapiens, UniProt P00533, INS769ASV); experiment: Ba/F3-EGFR-Exon20-ASV cell anti-proliferative assay (CellTiter 96 MTS, 72 h); conditions: Ba/F3-EGFR-Exon20-ASV cells
T1 construct: expressed in transfected cells; host or cells: Ba/F3 (murine pro-B) cells transduced with lentivirus from pLVX-IRES puro
Method in brief: (§1)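 Ba/F3 cells made IL-3-independent by lentiviral EGFR exon 20 NPG or ASV insertion were exposed 72 h at 37 °C to 4-fold dilutions of compound (top 10,000 nM). Viability read by MTS tetrazolium conversion, absorbance 490 nm after 2 h.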

[2] = target: T2, human EGFR exon 20 insertion NPG (H773_V774insNPG) (Homo sapiens, UniProt P00533, INS772GNP); experiment: Ba/F3-EGFR-Exon20-NPG cell anti-proliferative assay (CellTiter 96 MTS, 72 h); conditions: Ba/F3-EGFR-Exon20-NPG cells
T2 construct: expressed in transfected cells; host or cells: Ba/F3 (murine pro-B) cells transduced with lentivirus from pLVX-IRES puro
Method in brief: as §1

[3] = target: T3, human EGFR E746-A750 deletion and T790M Mutation (Homo sapiens, UniProt P00533, DEL746-750/T790M); experiment: Ba/F3-EGFR-Del/T790M cell anti-proliferative assay (CellTiter 96 MTS, 72 h); conditions: Ba/F3-EGFR-Del/T790M cells
T3 construct: expressed in transfected cells; host or cells: Ba/F3 (murine pro-B) cells transduced with lentivirus from pLVX-IRES puro
Method in brief: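 Ba/F3 cells made IL-3-independent by lentiviral human EGFR E746-A750 del/T790M, puromycin-selected. Cells treated 72 h at 37 °C with compound, 4-fold dilutions from 10,000 nM top concentration. Viability read by MTS tetrazolium-to-formazan conversion, absorbance at 490 nm after 2 h with reagent.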

[4] = target: T4, human EGFR L858R and T790M double mutation (Homo sapiens, UniProt P00533, L858R/T790M); experiment: Ba/F3-EGFR L858R/T790M cell anti-proliferative assay (CellTiter 96 MTS, 72 h); conditions: Ba/F3-EGFR L858R/T790M cells
T4 construct: expressed in transfected cells; host or cells: Ba/F3 (murine pro-B) cells transduced with lentivirus from pLVX-IRES puro
Procedure: An expression vector, pLVX-IRES puro (Clontech) coding for human EGFR L858R and T790M double mutation, was transfected into HEK293 cells by the Trans-Lentiviral ORF Packaging System (Thermo Scientific), to produce virus encoding EGFR L858R and T790M double mutations. Ba/F3 (DSMZ) cells maintained in RPMI 1640 medium supplemented with 10% fetal bovine serum, 200 μM L-glutamine/l 200 μg/mL penicillin/200 μg/mL streptomycin (Life Technology) and 10 ng/mL IL-3 (R&D system), were infected by EGFR L858R and T790M double mutation virus and subsequently selected by puromycin (Life Technology) selection and IL-3 depletion. […] The anti-proliferative activity of compounds was determined as follows: BaF3-EGFR L858R/T790M cells seeded in 96 well plates (2500 cells/well) were treated with test compound (dissolved in DMSO) at a series of concentrations (4-fold dilution, top concentration: 10,000 nM). The plates were incubated for 72 h in a 37° C. incubator with 5% CO2, and the number of viable cells in each well were measured indirectly by CellTiter 96® Aqueous One Solution Cell Proliferation Assay (Promega; this assay is a colorimetric method for determining the number of viable cells through measurement of their metabolic activity by detection of enzymatic conversion of tetrazolium salts into blue formazan derivatives). Reagent (20 μL) was added into each well, and the plates were returned to the incubator for 2 h. The absorbance in each well was then measured at 490 nm using an Envision plate reader (Perkin Elmer).

[5] = target: T5, Her2 exon 20 YVMA insertion (A775_G776ins YVMA) (Homo sapiens, UniProt P04626, INS775YVMA); experiment: Ba/F3-Her2 Exon20 YVMA cell anti-proliferative assay (CellTiter 96 MTS, 72 h); conditions: Ba/F3-Her2 Exon20 YVMA cells
T5 construct: expressed in transfected cells; host or cells: Ba/F3 (murine pro-B) cells transduced with lentivirus from pLVX-IRES puro
Method in brief: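 IL-3-independent Ba/F3 cells transduced with the YVMA insertion were treated with compound in 4-fold dilutions from 10,000 nM top. After 72 h at 37° C, viable cells were quantified by MTS tetrazolium conversion, with absorbance read at 490 nm after 2 h.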

T4 sequence (P00533 25-1210 T790M/L858R): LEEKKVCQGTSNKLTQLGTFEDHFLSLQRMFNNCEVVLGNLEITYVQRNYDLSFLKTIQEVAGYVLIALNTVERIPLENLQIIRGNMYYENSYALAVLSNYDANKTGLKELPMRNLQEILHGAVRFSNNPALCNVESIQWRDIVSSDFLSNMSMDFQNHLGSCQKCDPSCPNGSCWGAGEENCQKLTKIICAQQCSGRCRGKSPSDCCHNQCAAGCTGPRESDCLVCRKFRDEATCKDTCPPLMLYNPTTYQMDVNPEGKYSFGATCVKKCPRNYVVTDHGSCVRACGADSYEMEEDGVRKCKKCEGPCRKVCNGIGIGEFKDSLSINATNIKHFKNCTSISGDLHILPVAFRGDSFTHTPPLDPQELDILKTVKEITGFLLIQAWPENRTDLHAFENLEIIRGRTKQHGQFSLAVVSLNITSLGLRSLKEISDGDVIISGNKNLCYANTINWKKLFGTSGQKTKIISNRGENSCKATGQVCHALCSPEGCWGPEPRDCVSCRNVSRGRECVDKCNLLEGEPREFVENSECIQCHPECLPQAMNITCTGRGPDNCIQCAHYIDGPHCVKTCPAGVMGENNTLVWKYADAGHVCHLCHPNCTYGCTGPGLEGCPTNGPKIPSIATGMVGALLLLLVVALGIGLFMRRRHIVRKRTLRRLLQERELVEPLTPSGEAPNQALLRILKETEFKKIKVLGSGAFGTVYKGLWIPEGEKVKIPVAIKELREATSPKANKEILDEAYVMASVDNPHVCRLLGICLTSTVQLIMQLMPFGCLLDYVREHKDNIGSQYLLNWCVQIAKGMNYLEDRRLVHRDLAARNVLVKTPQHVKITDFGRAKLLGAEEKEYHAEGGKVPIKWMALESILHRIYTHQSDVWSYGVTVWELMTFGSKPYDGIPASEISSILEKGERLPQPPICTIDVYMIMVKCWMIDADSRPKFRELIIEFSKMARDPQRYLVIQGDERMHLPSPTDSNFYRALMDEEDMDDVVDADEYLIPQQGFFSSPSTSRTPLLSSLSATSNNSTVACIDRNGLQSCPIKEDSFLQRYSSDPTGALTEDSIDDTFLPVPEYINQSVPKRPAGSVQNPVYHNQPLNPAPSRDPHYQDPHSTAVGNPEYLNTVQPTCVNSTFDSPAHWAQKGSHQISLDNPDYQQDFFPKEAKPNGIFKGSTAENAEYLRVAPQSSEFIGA
T1 sequence (P00533 with tags, fused parts or gaps INS769ASV): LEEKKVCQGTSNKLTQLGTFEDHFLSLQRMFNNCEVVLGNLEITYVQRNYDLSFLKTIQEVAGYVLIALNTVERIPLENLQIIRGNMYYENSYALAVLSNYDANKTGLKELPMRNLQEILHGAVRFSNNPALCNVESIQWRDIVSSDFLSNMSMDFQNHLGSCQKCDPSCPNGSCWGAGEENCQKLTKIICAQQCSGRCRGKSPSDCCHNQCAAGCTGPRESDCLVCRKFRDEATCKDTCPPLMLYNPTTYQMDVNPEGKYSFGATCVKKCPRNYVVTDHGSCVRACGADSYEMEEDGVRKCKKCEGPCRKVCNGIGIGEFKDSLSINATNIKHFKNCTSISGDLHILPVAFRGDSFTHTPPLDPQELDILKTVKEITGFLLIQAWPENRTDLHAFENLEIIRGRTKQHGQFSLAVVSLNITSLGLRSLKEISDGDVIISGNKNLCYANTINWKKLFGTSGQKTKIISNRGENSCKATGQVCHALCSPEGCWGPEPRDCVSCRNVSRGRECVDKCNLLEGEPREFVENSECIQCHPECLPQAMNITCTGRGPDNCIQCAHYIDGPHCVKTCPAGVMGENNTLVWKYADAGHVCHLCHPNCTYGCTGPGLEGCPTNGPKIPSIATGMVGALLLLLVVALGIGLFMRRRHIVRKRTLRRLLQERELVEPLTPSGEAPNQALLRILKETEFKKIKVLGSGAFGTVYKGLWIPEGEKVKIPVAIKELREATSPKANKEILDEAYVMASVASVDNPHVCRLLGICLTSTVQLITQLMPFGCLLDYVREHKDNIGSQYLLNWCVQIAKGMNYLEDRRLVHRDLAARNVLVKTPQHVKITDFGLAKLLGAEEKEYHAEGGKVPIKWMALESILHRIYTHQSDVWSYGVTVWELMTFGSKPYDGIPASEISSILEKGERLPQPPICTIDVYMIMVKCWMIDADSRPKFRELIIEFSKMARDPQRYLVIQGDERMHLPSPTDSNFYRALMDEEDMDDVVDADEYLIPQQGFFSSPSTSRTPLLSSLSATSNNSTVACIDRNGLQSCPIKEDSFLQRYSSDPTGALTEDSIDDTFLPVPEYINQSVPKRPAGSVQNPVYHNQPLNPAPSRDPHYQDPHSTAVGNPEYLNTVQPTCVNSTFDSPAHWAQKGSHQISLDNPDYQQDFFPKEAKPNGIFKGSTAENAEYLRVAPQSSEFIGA
T3 sequence (P00533 with tags, fused parts or gaps DEL746-750/T790M): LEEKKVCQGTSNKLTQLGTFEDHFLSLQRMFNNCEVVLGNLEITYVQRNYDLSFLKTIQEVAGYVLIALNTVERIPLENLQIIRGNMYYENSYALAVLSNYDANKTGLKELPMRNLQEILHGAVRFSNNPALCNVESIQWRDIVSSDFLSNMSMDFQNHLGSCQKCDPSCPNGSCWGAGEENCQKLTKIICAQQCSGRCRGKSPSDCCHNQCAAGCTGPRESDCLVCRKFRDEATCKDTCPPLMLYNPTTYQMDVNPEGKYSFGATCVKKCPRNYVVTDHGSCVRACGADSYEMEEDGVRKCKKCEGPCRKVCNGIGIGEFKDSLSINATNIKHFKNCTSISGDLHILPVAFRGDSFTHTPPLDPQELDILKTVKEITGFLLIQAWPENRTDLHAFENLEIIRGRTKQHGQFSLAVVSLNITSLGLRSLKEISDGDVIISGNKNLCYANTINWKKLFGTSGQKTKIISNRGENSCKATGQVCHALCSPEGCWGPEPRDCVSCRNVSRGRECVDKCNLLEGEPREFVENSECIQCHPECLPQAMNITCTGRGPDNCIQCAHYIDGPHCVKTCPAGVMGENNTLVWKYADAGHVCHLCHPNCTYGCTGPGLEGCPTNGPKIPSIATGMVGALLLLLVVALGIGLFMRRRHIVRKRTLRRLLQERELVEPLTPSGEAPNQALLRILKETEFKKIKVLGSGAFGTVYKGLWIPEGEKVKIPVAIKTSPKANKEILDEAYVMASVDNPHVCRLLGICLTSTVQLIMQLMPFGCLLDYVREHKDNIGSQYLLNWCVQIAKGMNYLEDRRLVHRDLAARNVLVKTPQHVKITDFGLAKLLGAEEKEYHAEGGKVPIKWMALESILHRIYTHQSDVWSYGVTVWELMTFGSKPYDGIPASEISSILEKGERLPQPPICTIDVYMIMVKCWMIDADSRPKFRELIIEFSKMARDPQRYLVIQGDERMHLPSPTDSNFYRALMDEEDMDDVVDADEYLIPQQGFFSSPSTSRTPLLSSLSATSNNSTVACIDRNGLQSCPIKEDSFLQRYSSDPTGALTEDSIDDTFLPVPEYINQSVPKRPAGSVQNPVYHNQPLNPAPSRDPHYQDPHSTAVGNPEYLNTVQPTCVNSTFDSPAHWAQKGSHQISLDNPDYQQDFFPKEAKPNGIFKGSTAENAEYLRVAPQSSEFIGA
T2 sequence (P00533 with tags, fused parts or gaps INS772GNP): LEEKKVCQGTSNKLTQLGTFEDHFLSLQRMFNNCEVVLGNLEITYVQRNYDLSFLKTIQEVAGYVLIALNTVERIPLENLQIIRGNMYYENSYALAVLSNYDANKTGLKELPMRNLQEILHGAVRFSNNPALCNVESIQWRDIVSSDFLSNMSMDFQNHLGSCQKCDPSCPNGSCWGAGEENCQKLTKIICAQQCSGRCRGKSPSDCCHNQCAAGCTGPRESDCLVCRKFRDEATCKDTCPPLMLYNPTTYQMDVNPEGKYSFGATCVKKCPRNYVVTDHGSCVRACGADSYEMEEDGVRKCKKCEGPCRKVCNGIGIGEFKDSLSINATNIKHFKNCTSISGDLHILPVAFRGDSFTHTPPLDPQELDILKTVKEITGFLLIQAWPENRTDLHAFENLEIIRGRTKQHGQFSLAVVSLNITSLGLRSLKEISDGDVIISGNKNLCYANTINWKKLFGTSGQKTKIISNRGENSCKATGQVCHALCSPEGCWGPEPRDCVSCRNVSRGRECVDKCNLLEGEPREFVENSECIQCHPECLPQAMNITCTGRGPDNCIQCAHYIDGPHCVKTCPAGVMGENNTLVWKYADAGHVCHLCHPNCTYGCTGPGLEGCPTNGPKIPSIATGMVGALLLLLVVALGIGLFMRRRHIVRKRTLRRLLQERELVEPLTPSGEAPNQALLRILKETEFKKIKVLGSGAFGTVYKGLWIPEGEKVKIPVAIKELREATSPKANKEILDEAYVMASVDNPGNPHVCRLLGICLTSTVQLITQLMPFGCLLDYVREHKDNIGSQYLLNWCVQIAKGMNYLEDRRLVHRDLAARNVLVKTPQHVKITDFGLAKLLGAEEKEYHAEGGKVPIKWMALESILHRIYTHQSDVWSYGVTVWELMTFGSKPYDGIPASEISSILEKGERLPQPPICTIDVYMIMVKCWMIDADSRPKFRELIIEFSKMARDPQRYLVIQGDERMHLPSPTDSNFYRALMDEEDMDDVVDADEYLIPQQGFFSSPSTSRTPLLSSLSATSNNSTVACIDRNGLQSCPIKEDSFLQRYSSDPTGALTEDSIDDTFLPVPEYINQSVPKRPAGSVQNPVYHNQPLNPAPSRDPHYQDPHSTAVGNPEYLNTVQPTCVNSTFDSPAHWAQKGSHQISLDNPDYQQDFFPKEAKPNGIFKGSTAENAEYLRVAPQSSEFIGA

SMILES	IC50 [1] [nM]	IC50 [2] [nM]	EGFR exon 19 deletion and exon 20 T790M mutation IC50 [3]	EGFR exon 21 L858R and exon 20 T790M mutation IC50 [4]	IC50 [5] [nM]
C=CC(=O)Nc1cc(Nc2nccc(-c3cn4c5c(cccc35)CCC4)n2)c(OC)cc1N(C)CCNC [Example 83, N-(5-((4-(5,6-dihydro-4H-pyrrolo[3,2,1-ij]quinolin-1-yl)pyrimidin-2-yl)amino)-4-methoxy-2-(methyl(2-(methylamino)ethyl)amino)phenyl)acrylamide]	100 to 500	< 100	A (IC50 value for the indicated mutant below about 100 nM)	A (IC50 value for the indicated mutant below about 100 nM)	100 to 500
C=CC(=O)Nc1cc(Nc2ncc(C#N)c(-c3cn4c5c(cccc35)CCC4)n2)c(OC)cc1N(C)CCNC [Example 84, N-(5-((5-cyano-4-(5,6-dihydro-4H-pyrrolo[3,2,1-ij]quinolin-1-yl)pyrimidin-2-yl)amino)-4-methoxy-2-(methyl(2-(methylamino)ethyl)amino)phenyl)acrylamide]	< 100	> 1000	A (IC50 value for the indicated mutant below about 100 nM)	A (IC50 value for the indicated mutant below about 100 nM)	< 100
C=CC(=O)Nc1cc(Nc2ncc(CCP(C)(C)=O)c(-c3cn4c5c(cccc35)CCC4)n2)c(OC)cc1N(C)CCN(C)C [Example 96]	> 1000	> 1000	D (IC50 value for the indicated mutant greater than about 1 μM)	D (IC50 value for the indicated mutant greater than about 1 μM)	> 1000
C=CC(=O)Nc1cc(Nc2ncc(-c3ncc[nH]3)c(-c3cn4c5c(cccc35)CCC4)n2)c(OC)cc1N(C)CCN(C)C [Example 97]	100 to 500	100 to 500	B (IC50 value for the indicated mutant between about 100 to about 500 nM)	C (IC50 value for the indicated mutant between greater than about 500 to about 1 μM)	> 1000
C=CC(=O)Nc1cc(Nc2nccc(-c3cn4c5c(cccc35)OCC4)n2)c(OC)cc1N(C)CCNC [Example 105, N-(5-((4-(2,3-dihydro-[1,4]oxazino[2,3,4-hi]indol-6-yl)pyrimidin-2-yl)amino)-4-methoxy-2-(methyl(2-(methylamino)ethyl)amino)phenyl)acrylamide]	100 to 500	100 to 500	A (IC50 value for the indicated mutant below about 100 nM)	C (IC50 value for the indicated mutant between greater than about 500 to about 1 μM)	500 to 1000
C=CC(=O)Nc1cc(Nc2ncc(-c3nnc(C)o3)c(-c3cn4c5c(cccc35)CCC4)n2)c(OC)cc1N(C)CCN(C)C [Example 107]	< 100	< 100	A (IC50 value for the indicated mutant below about 100 nM)	A (IC50 value for the indicated mutant below about 100 nM)	< 100
